Results from US9345667B2, “Particles having hydrophobic material therein” (Australian Nuclear Science and Technology Organisation, priority 2005, dated 2016).
Values after ≈ are worked out from the molar mass of the structure shown.

Columns and labels:
[1] = cited from earlier work
[2] = Release of SB-35 dye from silica microparticles (UV/Vis); type: physicochemical; conditions: in cyclohexane, compared with dodecane
Method: 1. The encapsulation efficiency and release rate of the hydrophobic dye were determined by UV/Vis spectroscopy (Cary 50). The encapsulation efficiency was estimated by two methods. The first one was an indirect measurement, which consisted of measuring the U/Vis absorbance of the cyclohexane/Span 80 solutions after the silica particles had been filtered out. The encapsulation efficiency of the dye was calculated by subtracting the dye measured in the outer oil phase from the original dye concentration introduced into the system. A standard calibration curve was generated by adding accurate amounts of dye into the outer oil phase, with identical composition and concentration as the one used for the preparation of the corresponding samples. The second “direct” method consisted of measuring the release of SB-35 from the silica particles in a solvent such as ethanol, cyclohexane or dodecane, until the absorbance was stable. A standard calibration curve was produced by using the identical composition and concentration as the sample release media. (The surfactant content was estimated by the TGA/DTA result). The absorbance was measured at different intervals of time while stirring the product to produce the dye release curve.
The faster release rate observed in the case of the cyclohexane may be explained by the higher lipophilicity of the cyclohexane. […]

[3] = UV/Vis of retinol during release from retinol-doped silica particles; type: physicochemical; conditions: release in anhydrous ethanol

CN(C)C(=O)Nc1ccc(Cl)c(Cl)c1 [diuron, 3-(3,4-Dichlorophenyl)-1,1-dimethylurea]
solubility in methanol [1]: 43 mg/mL (≈ 184 mM)

CCCCNc1ccc(NCCCC)c2c1C(=O)c1ccccc1C2=O [SB-35, Solvent Blue 35]
release rate of SB-35 from silica microparticles [2]: faster than in dodecane

CC1=C(/C=C/C(C)=C/C=C/C(C)=C/CO)C(C)(C)CCC1 [retinol]
retinol UV/Vis band during release [3]: disappeared
